Consider 15 molecules from ChEMBL document CHEMBL1145107, “Peptide science: exploring the use of chemical principles and interdisciplinary collaboration for understanding life processes” (J Med Chem, 2003).

One assay concerns the target T1, Oxytocin receptor (Homo sapiens, UniProt P30559).
T1 sequence (P30559 whole entry): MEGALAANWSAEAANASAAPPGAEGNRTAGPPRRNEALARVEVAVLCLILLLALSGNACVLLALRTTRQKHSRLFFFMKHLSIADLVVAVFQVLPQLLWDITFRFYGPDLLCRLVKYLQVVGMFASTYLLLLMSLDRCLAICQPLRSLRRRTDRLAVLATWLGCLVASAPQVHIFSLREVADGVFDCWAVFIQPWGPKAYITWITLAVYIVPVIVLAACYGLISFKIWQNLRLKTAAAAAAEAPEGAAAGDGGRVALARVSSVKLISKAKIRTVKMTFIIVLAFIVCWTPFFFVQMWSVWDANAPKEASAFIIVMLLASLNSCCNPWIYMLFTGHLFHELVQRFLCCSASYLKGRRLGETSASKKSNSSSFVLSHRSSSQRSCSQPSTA
The assay is described as follows: Binding affinity towards oxytocin receptor.

In assay [1] the target is Delta-type opioid receptor (Mus musculus, UniProt P32300). Put plainly: In vitro bioassay data to determine the effective concentration required for antagonistic activity against Opioid receptor delta 1 in functional assay, MVD.
Sequence of Delta-type opioid receptor (Mus musculus, UniProt P32300) (P32300 whole entry): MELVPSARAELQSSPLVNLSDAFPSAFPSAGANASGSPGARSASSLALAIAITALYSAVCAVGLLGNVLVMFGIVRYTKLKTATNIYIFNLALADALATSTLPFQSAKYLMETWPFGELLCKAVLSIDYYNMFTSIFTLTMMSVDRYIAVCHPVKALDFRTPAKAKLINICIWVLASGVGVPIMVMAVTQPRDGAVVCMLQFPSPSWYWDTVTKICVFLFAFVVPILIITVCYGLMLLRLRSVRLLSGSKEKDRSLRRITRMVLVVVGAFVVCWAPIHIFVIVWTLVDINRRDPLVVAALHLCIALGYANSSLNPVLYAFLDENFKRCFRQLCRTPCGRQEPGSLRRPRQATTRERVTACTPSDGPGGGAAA
The target of assay [2] is Delta-type opioid receptor (Rattus norvegicus, UniProt P33533). The assay is described as follows: Binding affinity towards Opioid receptor delta 1 using [3H]- [p-CIPhe4] DPDPE as radioligand.
Sequence of Delta-type opioid receptor (Rattus norvegicus, UniProt P33533) (P33533 whole entry): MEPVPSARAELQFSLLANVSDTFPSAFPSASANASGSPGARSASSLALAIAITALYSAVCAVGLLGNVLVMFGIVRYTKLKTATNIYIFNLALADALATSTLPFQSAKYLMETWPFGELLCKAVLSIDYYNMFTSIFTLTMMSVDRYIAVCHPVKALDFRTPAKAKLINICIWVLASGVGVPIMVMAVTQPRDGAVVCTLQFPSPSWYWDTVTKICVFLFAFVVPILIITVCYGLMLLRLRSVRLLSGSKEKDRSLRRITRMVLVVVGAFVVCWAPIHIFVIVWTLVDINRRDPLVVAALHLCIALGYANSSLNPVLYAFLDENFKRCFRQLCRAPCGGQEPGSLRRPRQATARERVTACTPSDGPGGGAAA
Assay [3] has as its target T2, Mu-type opioid receptor (Homo sapiens, UniProt P35372). The assay is described as follows: (§1) Binding affinity towards Opioid receptor mu 1 using [3H]- CTOP as radioligand.
Assay [4] concerns the target Mu-type opioid receptor (Cavia porcellus, UniProt P97266). The assay is described as follows: In vitro bioassay data to determine the effective concentration required for antagonistic activity against Opioid receptor mu 1 in functional assay, GPI.
Assay [5] deals with Anolis carolinensis. The assay is described as follows: Biological activity using the lizard skin (Anolis carolinensis) assay. The value indicates no prolonged biological activity. In kind it is functional, organism-based.
Assay [6] in a line: Biological activity using the frog skin (Rana pipiens) assay. The value indicates no prolonged biological activity. It counts as functional.
Assay [7] deals with Mu-type opioid receptor (Cavia porcellus) (UniProt P97266). Put plainly: In vitro bioassay data to determine the effective concentration required for antagonistic activity against Opioid receptor mu 1 in functional assay, GPI at a concentration of 60 uM. Set-up: scale not given: the % may be the effect or the level left.
Sequence of Mu-type opioid receptor (Cavia porcellus) (P97266 whole entry): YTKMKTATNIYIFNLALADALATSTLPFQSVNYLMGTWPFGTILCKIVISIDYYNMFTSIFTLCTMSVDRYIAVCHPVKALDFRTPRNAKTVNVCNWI
For assay [8] the target is unchanged. The assay is described as follows: In vitro bioassay data to determine the effective concentration required for antagonistic activity against Opioid receptor mu 1 in functional assay, GPI at a concentration of 82 uM. Set-up: scale not given: the % may be the effect or the level left.
Assay [9] concerns the target T2, Mu-type opioid receptor. The description is as §1. This is another data set of the same source.
For assay [10], the system named is Anolis carolinensis. The assay is described as follows: Biological activity using the lizard skin (Anolis carolinensis) assay. The value indicates prolonged biological activity. It counts as functional, organism-based.
Assay [11] is described as follows: Biological activity using the frog skin (Rana pipiens) assay. The value indicates prolonged biological activity. It counts as functional.

*1 amine or outer side, *2 acyl side, *3 side chain or, on linkers, in order; H or OH if unused. Where a SMILES comes first, the peptide text is derived from it. [ ]: non-standard residue; d: D form. X1 = Cc1cc(O)cc(C)c1[C@H](C)[C@@H](N[*:1])C(=O)[*:2]; X3 = Cc1cc(O)cc(C)c1[C@@H](C)[C@H](N[*:1])C(=O)[*:2]; Pen = CC(C)(S)[C@H](N)C(=O)O

T2 sequence (P35372 whole entry): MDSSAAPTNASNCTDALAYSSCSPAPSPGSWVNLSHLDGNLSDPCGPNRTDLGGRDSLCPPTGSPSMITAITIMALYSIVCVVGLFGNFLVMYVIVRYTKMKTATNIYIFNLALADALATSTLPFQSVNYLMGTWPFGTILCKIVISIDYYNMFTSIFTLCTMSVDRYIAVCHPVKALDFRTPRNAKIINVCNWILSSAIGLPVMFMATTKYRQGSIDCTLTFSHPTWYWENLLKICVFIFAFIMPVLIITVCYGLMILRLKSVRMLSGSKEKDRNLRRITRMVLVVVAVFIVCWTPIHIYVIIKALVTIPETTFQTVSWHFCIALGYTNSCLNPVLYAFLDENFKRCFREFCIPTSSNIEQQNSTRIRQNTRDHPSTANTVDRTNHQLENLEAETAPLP
Sequence of Mu-type opioid receptor (Cavia porcellus, UniProt P97266) (P97266 whole entry): as the sequence (P97266 whole entry) above

`CC[C@H](C)[C@@H]1NC(=O)[C@@H]([C@H](C)c2c(C)cc(OC)cc2C)NC(=O)[C@H](N)C(C)(C)SSC[C@@H]2NC(=O)[C@H](CC(N)=O)NC(=O)[C@H](CCC(=O)NCCCC[C@@H](C(=O)NCC(N)=O)NC(=O)[C@@H]3CCCN3C2=O)NC1=O` returned an IC50 on Oxytocin receptor of 160 nM.
`CC[C@H](C)[C@@H]1NC(=O)[C@@H]([C@@H](C)c2c(C)cc(OC)cc2C)NC(=O)[C@H](N)C(C)(C)SSC[C@@H]2NC(=O)[C@@H](CC(N)=O)NC(=O)[C@@H](CCC(=O)NCCCC[C@H](C(=O)NCC(N)=O)NC(=O)[C@H]3CCCN3C2=O)NC1=O` yielded an IC50 on Oxytocin receptor of 36000 nM.
In the case of `Cc1cc(O)cc(C)c1[C@@H](C)[C@@H](N)C(=O)N[C@H]1C(=O)NCC(=O)N[C@@H](Cc2ccccc2)C(=O)N[C@@H](C(=O)O)C(C)(C)SSC1(C)C`, the EC50 in [1] worked out at 2200 nM; at Mu-type opioid receptor [4] it was 50000 nM. Moreover, the IC50 was 3500 nM in assay [2] and 77000 nM at Mu-type opioid receptor [3].
For the molecule `CCCC[C@H](NC(C)=O)C(=O)N[C@H]1CC(=O)NCCCC[C@@H](C(N)=O)NC(=O)[C@H]([C@H](C)c2c[nH]c3ccccc23)NC(=O)[C@H](CCCN=C(N)N)NC(=O)[C@@H](Cc2ccccc2)NC(=O)[C@H](Cc2c[nH]cn2)NC1=O`, the EC50 came to 6.7 nM in the assay with Anolis carolinensis [5] and 29 nM in assay [6].
In the case of `CCCC[C@H](NC(C)=O)C(=O)N[C@H]1CC(=O)NC[C@@H](C(N)=O)NC(=O)[C@H](Cc2c[nH]c3ccccc23)NC(=O)[C@H](CCCN=C(N)N)NC(=O)[C@@H](Cc2ccccc2)NC(=O)[C@H](Cc2c[nH]cn2)NC1=O`, the EC50 with Anolis carolinensis [5] worked out at 0.2 nM; in assay [6], 50 nM.
On to `CC[C@H](C)[C@@H]1NC(=O)[C@H]([C@@H](C)c2c(C)cc(OC)cc2C)NC(=O)[C@H](N)C(C)(C)SSC[C@@H]2NC(=O)[C@H](CC(N)=O)NC(=O)[C@H](CCC(=O)NCCCC[C@@H](C(=O)NCC(N)=O)NC(=O)[C@@H]3CCCN3C2=O)NC1=O`, for which the IC50 at Oxytocin receptor is 8 nM.
`Cc1cc(O)cc(C)c1[C@@H](C)[C@H](N)C(=O)N[C@H](C(=O)NCC(=O)N[C@@H](Cc1ccccc1)C(=O)N[C@H](C(=O)O)C(C)(C)S)C(C)(C)S` (H-[X3][Pen]GF[Pen]-OH) registered an Activity in assay [7] of 0%.
In the case of `CCCC[C@H](NC(C)=O)C(=O)N[C@H]1CC(=O)NCC[C@@H](C(N)=O)NC(=O)[C@H](Cc2c[nH]c3ccccc23)NC(=O)[C@H](CCCN=C(N)N)NC(=O)[C@@H](Cc2ccccc2)NC(=O)[C@H](Cc2c[nH]cn2)NC1=O`, the EC50 in the assay with Anolis carolinensis [5] stood at 0.2 nM; in assay [6], 0.5 nM.
For `Cc1cc(O)cc(C)c1[C@H](C)[C@H](N)C(=O)N[C@H]1C(=O)NCC(=O)N[C@@H](Cc2ccccc2)C(=O)N[C@@H](C(=O)O)C(C)(C)SSC1(C)C`, the IC50 in assay [2] amounted to 210 nM; on Mu-type opioid receptor [3], 720 nM.
Take `Cc1cc(O)cc(C)c1[C@H](C)[C@@H](N)C(=O)N[C@H](C(=O)NCC(=O)N[C@@H](Cc1ccccc1)C(=O)N[C@H](C(=O)O)C(C)(C)S)C(C)(C)S` (H-[X1][Pen]GF[Pen]-OH): the figures for the Activity (in assay [8]; on Mu-type opioid receptor [9]) were 75% and 0%, respectively.
Regarding `CC[C@H](C)[C@@H]1NC(=O)[C@H]([C@H](C)c2c(C)cc(OC)cc2C)NC(=O)[C@H](N)C(C)(C)SSC[C@@H]2NC(=O)[C@@H](CC(N)=O)NC(=O)[C@@H](CCC(=O)NCCCC[C@H](C(=O)NCC(N)=O)NC(=O)[C@H]3CCCN3C2=O)NC1=O`, at Oxytocin receptor, the IC50 turned out to be 19000 nM.
The molecule `Cc1cc(O)cc(C)c1[C@@H](C)[C@H](N)C(=O)N[C@H]1C(=O)NCC(=O)N[C@@H](Cc2ccccc2)C(=O)N[C@@H](C(=O)O)C(C)(C)SSC1(C)C` returned a half-maximal inhibitory concentration (IC50) on Mu-type opioid receptor [3] of 4300 nM.
On Oxytocin receptor, `CC[C@H](C)[C@@H]1NC(=O)[C@H](Cc2ccc(O)cc2)NC(=O)[C@H](N)C(C)(C)SSC[C@@H]2NC(=O)[C@H](CC(N)=O)NC(=O)[C@H](CCC(=O)NCCCC[C@@H](C(=O)NCC(N)=O)NC(=O)[C@@H]3CCCN3C2=O)NC1=O` gave an IC50 of 130 nM.
For the molecule `CCCC[C@H](NC(C)=O)C(=O)N[C@H]1CC(=O)NCCC[C@@H](C(N)=O)NC(=O)[C@H](Cc2c[nH]c3ccccc23)NC(=O)[C@H](CCCN=C(N)N)NC(=O)[C@@H](Cc2ccccc2)NC(=O)[C@H](Cc2c[nH]cn2)NC1=O`, the EC50 came out at 0.05 nM in the assay on Anolis carolinensis [5] and 0.5 nM in assay [6].
Regarding `CCCC[C@H](NC(C)=O)C(=O)N[C@H]1CCC(=O)NCCCC[C@@H](C(N)=O)NC(=O)[C@H](Cc2c[nH]c3ccccc23)NC(=O)[C@H](CCCN=C(N)N)NC(=O)[C@@H](Cc2ccccc2)NC(=O)[C@H](Cc2c[nH]cn2)NC1=O`, the concentration for a half-maximal effect (EC50) in the assay on Anolis carolinensis [10] was 0.11 nM; in [11], 1 nM.
